Source: the supplement of paper PMC13380429

What was measured:
Settings in all cases: 72 h
Calu-3 [1] = assay: drug sensitivity score (DSS) for viability; higher = more toxic; extreme values may be limits of the assay
U2OS [2] = assay: as above
Vero E6 [3] = assay: as above
Caco-2 [4] = assay: as above
Calu-3 [5] = assay: cell viability relative to DMSO; higher = less toxic
U2OS [6] = assay: as above
Vero E6 [7] = assay: as above
Caco-2 [8] = assay: as above
Calu-3 [9] = assay: relative viability EC50 (midpoint between 100% and the lowest measured viability); higher = less toxic
U2OS [10] = assay: as above
Vero E6 [11] = assay: as above
Caco-2 [12] = assay: as above
HepG2 [13] = assay: drug sensitivity score (DSS) for viability; higher = more toxic; extreme values may be limits of the assay
HepG2 [14] = assay: cell viability relative to DMSO; higher = less toxic
HepG2 [15] = assay: relative viability EC50 (midpoint between 100% and the lowest measured viability); higher = less toxic

Structure (SMILES) | drug sensitivity score (Calu-3 [1]) | drug sensitivity score (U2OS [2]) | drug sensitivity score (Vero E6 [3]) | drug sensitivity score (Caco-2 [4]) | cell viability (Calu-3 [5]; 1 nM) [%] | cell viability (Calu-3 [5]; 10 nM) [%] | cell viability (Calu-3 [5]; 100 nM) [%] | cell viability (Calu-3 [5]; 1000 nM) [%] | cell viability (Calu-3 [5]; 10000 nM) [%] | cell viability (U2OS [6]; 1 nM) [%] | cell viability (U2OS [6]; 10 nM) [%] | cell viability (U2OS [6]; 100 nM) [%] | cell viability (U2OS [6]; 1000 nM) [%] | cell viability (U2OS [6]; 10000 nM) [%] | cell viability (Vero E6 [7]; 1 nM) [%] | cell viability (Vero E6 [7]; 10 nM) [%] | cell viability (Vero E6 [7]; 100 nM) [%] | cell viability (Vero E6 [7]; 1000 nM) [%] | cell viability (Vero E6 [7]; 10000 nM) [%] | cell viability (Caco-2 [8]; 1 nM) [%] | cell viability (Caco-2 [8]; 10 nM) [%] | cell viability (Caco-2 [8]; 100 nM) [%] | cell viability (Caco-2 [8]; 1000 nM) [%] | cell viability (Caco-2 [8]; 10000 nM) [%] | relative viability EC50 (Calu-3 [9]) [µM] | relative viability EC50 (U2OS [10]) [µM] | relative viability EC50 (Vero E6 [11]) [µM] | relative viability EC50 (Caco-2 [12]) [µM] | drug sensitivity score (HepG2 [13]) | cell viability (HepG2 [14]; 1 nM) [%] | cell viability (HepG2 [14]; 10 nM) [%] | cell viability (HepG2 [14]; 100 nM) [%] | cell viability (HepG2 [14]; 1000 nM) [%] | cell viability (HepG2 [14]; 10000 nM) [%] | relative viability EC50 (HepG2 [15]) [µM]
COc1cc2c(cc1OCCCN1CCCC1)N=C(N)C21CCC1 [A-366] | 0 | 0 | 0 | 0 | 97.3 | 106 | 102 | 103 | 95.4 | 103 | 102 | 98.9 | 105 | 95.2 | 101 | 98.1 | 93.6 | 94.4 | 97.8 | 91.2 | 95.4 | 97.5 | 104 | 92 | > 10 | > 10 | > 10 | > 10 |  |  |  |  |  |  | 
C[C@H](NC(=O)Cc1cc(F)cc(F)c1)C(=O)N[C@H](C(=O)OC(C)(C)C)c1ccccc1 [DAPT] | 0 | 0 | 0 | 0 | 105 | 100 | 112 | 91.1 | 103 | 106 | 106 | 105 | 97.7 | 101 | 98.3 | 108 | 103 | 105 | 102 | 108 | 109 | 116 | 99.8 | 96.1 | > 10 | > 10 | > 10 | > 10 |  |  |  |  |  |  | 
O=C(NCCS(=O)(=O)c1ccc(C(F)(F)F)cn1)c1ccc(Cl)cc1 [GSK3787] | 0 |  | 0 | 0 | 104 | 94.8 | 103 | 100 | 97.7 |  |  |  |  |  | 97.8 | 97.3 | 91.2 | 89.9 | 101 | 99.8 | 95.5 | 102 | 99.7 | 99.8 | > 10 |  | > 10 | > 10 | 0 | 97.7 | 102 | 117 | 99.6 | 102 | > 10
Clc1ccc2c(NCCNc3ccnc4cc(Cl)ccc34)ccnc2c1 [NSC-5844] | 0 | 0 | 0 | 0.4 | 97.8 | 98.3 | 103 | 96.9 | 96.1 | 97.3 | 96.6 | 100 | 94.9 | 96.7 | 88 | 95.2 | 96.2 | 94.5 | 101 | 98.6 | 102 | 106 | 117 | 76.9 | > 10 | > 10 | > 10 | > 10 |  |  |  |  |  |  | 
